Laboratory results reported in patent US4801606A (priority 1987, dated 1989).
≈ marks a conversion by molar mass, not a printed value. Read-outs that look alike come from different tables or passages of the source.

Legend:
Candida albicans = assay: microbe, parasite or virus in culture
[1] = as described in British patent specification Nos. 1,078,049 and 932,875; cited from earlier work

| SMILES | MIC (Candida albicans) [µg/mL] | VSV CYT (CV-1 cells; 0.2 ug/well) [LS] | VSV CYT (CV-1 cells; 2 ug/well) [LS] | VSV CYT (CV-1 cells; 20 ug/well) [LS] | antimitotic activity [1] |
| --- | --- | --- | --- | --- | --- |
| C=C1CC(OC)(C(O)C(=O)NC2OCOC3C2OC(CC(O)CCC/C=C/C=C/C=C/C(=O)NC(CCCNC(=N)N)C(=O)OC)C(C)(C)C3OC)OC(C)C1C (stereo not shown) [Methyl ester (2), Methyl ester of onnamide A] | 5 (≈ 6.19 µM) | – | – | – | – |
| C=C1CC(OC)(C(O)C(=O)NC2OCOC3C2OC(CC(O)CCC/C=C/C=C/C=C/C(=O)NC(CCCNC(=N)N)C(=O)O)C(C)(C)C3OC)OC(C)C1C (stereo not shown) [Onnamide A (1), onnamide A] | 50 (≈ 63 µM) | 0 | 0 | 0 | – |
| C=C1CC(OC)(C(O)C(=O)NC(OC)C2CC(O)C(C)(C)C(CC(COC)OC)O2)OC(C)C1C (stereo not shown) [Pederin] | – | – | – | – | antimitotic activity |
| C=C1CC(OC)(C(O)C(=O)NC2OCOC3C2OC(CC(O)CCC/C=C/C=C/C=C/C(=O)NC(CCCNc2nc(C)cc(C)n2)C(=O)O)C(C)(C)C3OC)OC(C)C1C (stereo not shown) [Pyrimidine derivative (3)] | 50 (≈ 58.3 µM) | – | – | – | – |
